Experimental data published in US20050032713A1, “Platelet-activating factor antagonists as analgesic, anti-inflammatory, uterine contraction inhibiting, and anti-tumor agents” (priority 2002, published 2005).
“Also recorded” adds a separate entry of the source. *1 amine or outer side, *2 acyl side, *3 side chain or, on linkers, in order; H or OH if unused. Where a SMILES comes first, the peptide text is derived from it. Bridges are numbered along the chain shown (N, C = ends). Roman numbers before positions name the chains, in order. [ ]: non-standard residue; d: D form. Actinocin(9to1) = Cc1c2oc3c(C)ccc(C(=O)[*:1])c3nc-2c(C(=O)[*:2])c(N)c1=O; NMeV = CN[C@H](C(=O)O)C(C)C; Sar = CNCC(=O)O

Assays:
Format in all cases: cell-based, rat
[1] = system: astrocyte-enriched cortical cell cultures; assay: PGE2 release (ELISA) from astrocyte-enriched cortical cell cultures exposed to PAF analogs, related lipids or AA; conditions: for PGE2 release into the conditioned media: various concentrations; for concentration giving peak PGE2 release: higher and lower concentrations elicited less release
Description: (§1) All experimental protocols were approved by the Massachusetts Institute of Technology institutional review committee and meet the guidelines of the National Institutes of Health. Dissociated astrocytes were cultured from cortices of postnatal day 1-2 rat pups (as described by K. D. McCarthy, et al., Preparation of separate astroglial and oligodendroglial cell cultures from rat cerebral tissue, J. Cell Biol. 85 (1980) 890-902, with minor modifications R. K. K. Lee, et al., Metabolic glutamate receptors increase amyloid precursor protein processing in astrocytes: inhibition by cyclic AMP, J. Neurochem. 68 (1997) 1830-1835.) In brief, cells from dissociated cortices were plated onto poly-L-lysine coated 35- or 100 mm culture dishes. The initial culture media, minimal essential medium (MEM, Gibco-Life Technologies; Rockville, Md.) containing 15% horse serum (BioWhittaker; Walkersville, Md.), were aspirated 2-5 h after plating to remove unattached cells and debris, and replaced with MEM containing 5% fetal bovine serum (FBS, BioWhittaker; Walkersville, Md.). Half the medium was replaced with MEM/5% FBS twice weekly. Astrocytes were kept at 37° C. in a humidified 5% CO2/95% air incubator for 9-15 days, by which time the cultures were confluent and could be used for experiments.
(§2) Mc-PAF (Biomol; Plymouth Meeting, PA) was dissolved in methanol at a stock concentration of 10 mM. PAF-16, PAF-18, lyso-PAF, AA (Cayman Chemicals), lyso-PC and PC (Sigma) were dissolved in ethanol at stock concentrations of 10 mM. All stock solutions of lipids were stored at −80° C. and were used within 6 weeks of reconstitution. BN 52021 and CV 6209 (Biomol) were dissolved in ethanol. These PAF antagonists were stored at −20° C. in stock concentrations of 100 mM. BN 50730 (Biomeasure; Milford, Mass.) was dissolved in 45% hydroxy-B-cyclodextrin (HBC). All agents were diluted in warned serum-free medium prior to cell stimulation. Equal amounts of vehicle was added to control cells.
(§3) Cells used for all experiments were established in vitro 9-15 days prior to use in experiments and were over 95% confluent. Serum-containing media were changed every 3-4 days. Cells were serum-deprived 24 hours prior to experimental treatments. Where treatment with PAF antagonists is indicated, these compounds were added 30 minutes prior to the addition of other agents.
(§4) PGE2 levels were measured by ELISA according to manufacturer's instructions (Cayman Chemicals, Ann Arbor, Mich.). Since the amount of PGE2 in fresh medium was negligible, (J. Luo, et al., Transforming growth factor B1 regulates the expression of cyclooxygenase in cultured cortical astrocytes and neurons, J. Neurochem. 71 (1998) 526-534), direct assays of the PGE2 concentration in cell-conditioned medium was used as a measurement of PGE2 secretion by cultured cells. Results were derived from at least 3 separate experiments, assayed in duplicate or triplicate (n=6-8). The reliable detection limit of this assay (i.e. sensitivity) averaged 14+/−6 pg of PGE2.

[2] = system: astrocyte-enriched cortical cell cultures; assay: Effect of PAF antagonists on mc-PAF-, lyso-PAF- and AA-induced PGE2 release from astrocytes; conditions: for mc-PAF-induced PGE2 release: antagonist added 30 min before mc-PAF (1 μM), 30 min, BN 50730 0.1-100 μM, BN 52021 and CV 6209 1-50 μM; for PGE2 release, antagonist administered alone: no mc-PAF
Description: as §1, §2, §3, §4

[3] = system: primary cortical astrocytes; assay: Effect of COX inhibitors on mc-PAF-induced PGE2 release from primary astrocytes (Example 3)
Description: Mc-PAF (Cayman Chemical, Ann Arbor, Mich.) was dissolved in ethanol at a stock concentration of 10 mM. Indomethacin, piroxicam, NS-398 (Biomol; Plymouth Meeting, Mass.), and SC-560 (Cayman Chemical) were dissolved in 45% hydroxy-β-cyclodextrin (HBC; Sigma, St. Louis, Mo.). Cells were serum-deprived for 24 hrs prior to experimental treatments to induce quiescence. Where treatment with inhibitors is indicated, these compounds were added 30 min prior to the addition of mc-PAF.
Direct assay of the PGE2 concentration in cell-conditioned medium was used as an index of PGE2 secretion by primary astrocytes. PGE2 levels were measured by ELISA according to manufacturer's instructions (Cayman Chemicals, Ann Arbor, Mich.), as described.
Results were derived from at least 3 separate experiments, assayed in duplicate or triplicate (n=6−8). Data were expressed as means+/−SEMs. Statistical analyses were performed using ANOVAs for comparisons between groups, followed by Fischer's PLSD post hoc comparisons by means contrast. p values <0.05 were considered statistically significant.

[4] = various inhibitor concentrations (indomethacin 1, 10, and 50 μM), 30 min prior to mc-PAF (0.1 uM) for 30 min
[5] = pre-treatment, actinomycin D 5 μg/ml, cyclohexamide 10 μg/ml, data not shown
[6] = 10, 1, 0.1, and 0.01 μM, 30 min

Compound: CCCCC/C=C\C/C=C\C/C=C\C/C=C\CCCC(=O)O [AA, arachidonic acid]
- PGE2 release ([1]; AA 0.01-10 μM, 30 minutes): increased PGE2 release
- PGE2 release on co-administration with mc-PAF ([1]; high AA concentration 10 μM with mc-PAF, 30 min): no synergism
- PGE2 release on co-administration with mc-PAF ([1]; low AA concentration 0.01 μM with mc-PAF (0.1, 1 or 10 μM), 30 min): additive increase

Compound: CCCCCCCCCCCCCCCCCCNC(=O)OCC(COC(=O)N(Cc1cccc[n+]1CC)C(C)=O)OC (stereo not drawn) [CV 6209]
- mc-PAF-induced PGE2 release [2]: no significant effect; also recorded: do not attenuate
- mc-PAF-induced PGE2 release ([2]; listed as CV-6209): did not significantly influence
- AA-induced PGE2 release ([2]; antagonist added 30 min prior): had no effect
- lyso-PAF-induced PGE2 release ([2]; antagonist added 30 min prior): had no effect
- PGE2 release, antagonist administered alone [2]: PGE2 release was increased
- PGE2 release, antagonist administered alone ([2]; listed as CV-6209): increased PGE2 release

Compound: CS(=O)(=O)Nc1ccc([N+](=O)[O-])cc1OC1CCCCC1 [NS-398]
- basal PGE2 release ([3]; NS-398 highest concentrations, 10 and 50 μM): prevented basal PGE2 release
- mc-PAF-induced PGE2 release [3, 4]: completely abolished; also recorded: completely blocked

Compound: CCCCCCCCCCCCCCCCOC[C@H](COP(=O)([O-])OCC[N+](C)(C)C)OC(C)=O [PAF-16]
- PGE2 release into the conditioned media ([1]; 30 min, 37° C.): concentration-dependent increases
- concentration giving peak PGE2 release ([1]; 30 min): 0.1 µM

Compound: CCCCCCCCCCCCCCCCCCOC[C@H](COP(=O)([O-])OCC[N+](C)(C)C)OC(C)=O [PAF-18]
- PGE2 release into the conditioned media ([1]; 30 min, 37° C.): concentration-dependent increases
- concentration giving peak PGE2 release ([1]; 30 min): 0.1 µM

Compound: COc1ccc(-n2nc(C(F)(F)F)cc2-c2ccc(Cl)cc2)cc1 [SC-560]
- mc-PAF-induced PGE2 release [3, 4]: did not significantly influence; also recorded: did not significantly do so; also recorded: minimal influence

Compound: Cc1c2oc3c(C)ccc(C(=O)N[C@@H]4C(=O)N[C@H](C(C)C)C(=O)N5CCC[C@H]5C(=O)N(C)CC(=O)N(C)[C@@H](C(C)C)C(=O)O[C@@H]4C)c3nc-2c(C(=O)N[C@@H]2C(=O)N[C@H](C(C)C)C(=O)N3CCC[C@H]3C(=O)N(C)CC(=O)N(C)[C@@H](C(C)C)C(=O)O[C@@H]2C)c(N)c1=O [actinomycin D] (I: T[dV]P[Sar][NMeV] / II: T[dV]P[Sar][NMeV]; ester I:1-I:C, II:1-II:C; linker I:N-II:N via Actinocin(9to1))
- mc-PAF-induced PGE2 release [3, 5]: had no effect

Compound: C[C@@H]1C[C@@H]([C@H](O)CC2CC(=O)NC(=O)C2)C(=O)[C@@H](C)C1 [cyclohexamide]
- mc-PAF-induced PGE2 release [3, 5]: had no effect

Compound: COc1ccc2c(c1)c(CC(=O)O)c(C)n2C(=O)c1ccc(Cl)cc1 [indomethacin]
- basal PGE2 release ([3]; indomethacin 1, 10, and 50 μM): without affecting basal PGE2 release
- mc-PAF-induced PGE2 release [3, 4]: attenuated; also recorded: completely blocked

Compound: CCCCCCCCCCCCCCCCOC[C@@H](O)COP(=O)([O-])OCC[N+](C)(C)C [lyso-PAF]
- concentration at which PGE2 release was significantly increased ([1]; 30 min, 37° C.): 10 µM
- PGE2 release into the conditioned media ([1]; 30 min, 37° C.): concentration-dependent increases

Compound: CN1C(C(=O)Nc2ccccn2)=C(O)c2ccccc2S1(=O)=O [piroxicam]
- mc-PAF-induced PGE2 release ([3]; piroxicam 50 μM, effect not statistically significant): attenuated some of this PGE2 release
- mc-PAF-induced PGE2 release ([3]; piroxicam 1 or 10 μM, 30 min prior to mc-PAF (0.1 uM)): had no effect
- mc-PAF-induced PGE2 release [3, 4]: did not significantly do so; also recorded: minimal influence

Compound: lyso-phosphatidylcholine [lyso-PC]
- PGE2 release [1, 6]: had no effect

Compound: phosphatidylcholine [PC]
- PGE2 release [1, 6]: had no effect
